Test results published in patent publication US20140350119A1, “OPHTHALMIC COMPOSITION COMPRISING GERANYLGERANYLACETONE” (ROHTO PHARMACEUTICAL CO., LTD., priority 2012, published 2014).

Tested on: IL-8 production by TNF-α in ARPE-19
Test: Inhibitory effect on IL-8 production by TNF-α from retinal pigment epithelial cells
Type: cell-based, human
Details: all-trans form content 50 μM, 16 hours, TNF-α 4 hours, FIG. 5, n=3
Excerpt: Age-related macular degeneration is known to involve the accumulation of drusen under the retinal pigment epithelium. Drusen attract macrophages and macrophages secrete TNF-α. TNF-α acts on the retinal pigment epithelium and its peripheral tissue, and the cells subsequently produce a variety of cytokines and cause inflammation (Mol Vis. 2008 14: 2292-303). A typical cytokine that is involved in neutrophil migration and spreads inflammation is interleukin-8 (IL-8). In this experiment, the inhibitory effect of GGA on IL-8 production by TNF-α was examined using a human-derived retinal pigment epithelial cell line, ARPE-19. […]
After 4 hours of incubation, 150 μL of the cell culture supernatant was collected and stored at −80° C. […] Then, 100 μL of an equivalent mixture of a cell viability detection reagent Cell Titer-Glo and PBS was added to each well and the luminescence produced by the reaction with ATP in living cells was measured with a luminometer. From the measured luminescence, the cell viability was calculated by the following formula.
Cell viability (%)=100×[(luminescence of GGA-treated group)/(luminescence of base-treated group)]
The stored cell culture supernatant was allowed to warm to room temperature, and the IL-8 concentration was quantified with Human CXCL8/IL-8 Quantikine ELISA Kit (R&D Systems). […]

CC(=O)CC/C=C(\C)CC/C=C(\C)CC/C=C(\C)CCC=C(C)C [all-trans form, (5E,9E,13E)-6,10,14,18-tetramethyl-5,9,13,17-nonadecatetrae n-2-one]
Inhibitory effect on IL-8 production compared with GGA 6:4: significant inhibitory effect on IL-8 production
